Results as given in patent US20260027083A1, “USE OF PPAR AGONIST FOR IMPROVEMENT OF ENERGY METABOLISM” (NOVMETAPHARMA CO., LTD., priority 2022, published 2026).

How the values were obtained:
[1] = target: T1, PPARγ (Homo sapiens, UniProt P37231); assay: Gal4 trans-activated luciferase reporter assay, PPARγ-LBD, HEK293; assay type: cell-based; details: HEK293, drug treatment 24 hours, FIG. 1
T1 construct: three types of pcDNA5-GAL4 and pGALRE-luc containing PPARα-LBD, PPARβ/δ-LBD, or PPARγ-LBD; GAL4 (fusion partner from vector pcDNA5-GAL4); expressed in transfected cells; host or cells: HEK293
T1 sequence (P37231 238-503 limits assumed): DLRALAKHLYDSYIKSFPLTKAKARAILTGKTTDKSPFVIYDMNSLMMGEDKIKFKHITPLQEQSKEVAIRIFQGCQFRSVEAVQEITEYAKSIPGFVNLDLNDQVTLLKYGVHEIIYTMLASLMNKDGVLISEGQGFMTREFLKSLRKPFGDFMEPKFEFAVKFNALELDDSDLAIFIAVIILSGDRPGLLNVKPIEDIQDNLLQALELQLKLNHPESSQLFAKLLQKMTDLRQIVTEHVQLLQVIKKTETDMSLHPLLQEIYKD
Protocol: A plasmid was transformed into E. coli (DE3, Rosetta) and transfected into HEK293 cells and used. Referring to known literatures such as Kanno, Y. & Inouye, Y. J Toxicol Sci 35, 515-525 (2010), Zhao, S. et al. J Nat Prod 79, 879-885 (2016), etc., luciferase assay was performed on three types of pcDNA5-GAL4 and pGALRE-luc containing PPARα-LBD, PPARβ/δ-LBD, or PPARγ-LBD. pProEX-PPAR and pET-28a were used for purification of His-tagged recombinant hPPAR-LBD protein.
A HEK293 cell line was cultured in Dulbecco's Modified Eagle Medium (DMEM) containing 10% Fetal Bovine Serum (FBS) and 1% penicillin-streptomycin (P/S). […]
Transfected HEK293 cells were treated with a drug and after 24 hours, the cells were collected, resuspended in a luciferase lysis buffer (Promega, Madison, Wisconsin, USA), and incubated on ice for 10 minutes. […] Next, Firefly Luciferase (Fluc) and Renilla Luciferase (Rluc) activities were measured using the Dual Luciferase Reporter Assay System (Promega, Madison, Wisconsin, USA). […]
To confirm whether a compound represented by Chemical Formula 1 was a PPAR agonist, Gal4 trans-activated luciferase assay was performed. Specifically, HEK293 cells were transfected with the Gal4-luciferase reporter systems of PPARα, PPARβ/δ, and PPARγ, respectively, harvested after drug treatment for 24 hours, and then analyzed by Dual-Luciferase assay. […]

[2] = system: 3T3-L1 adipocytes; assay: 3T3-L1 adipocyte differentiation, Oil Red O staining; assay type: cell-based, mouse; details: treated together with rosiglitazone, each 25 μM
Protocol: A mouse preadipocyte 3T3-L1 cell line was cultured in DMEM containing 10% […] (CS) and 1% P/S. For differentiation of 3T3-L1, 10% FBS and 1% P/S were used. The cells were cultured in a 37° C. incubator humidified with 5% CO2 atmosphere.
3T3-L1 cells were seeded in a 12-well plate at a density of 5×10^4 cells/well. […] On day 2 of MDI addition, the medium was replaced with 1 μg/ml insulin.
After 2 days, the medium was replaced with DMEM containing 10% FBS and 1% P/S, and treated with a drug. The medium was replaced with fresh DMEM containing 10% FBS and 1% P/S, and treated with the drug three times every 2 days. Finally, the medium was replaced with DMEM containing only the drug in a serum-free state (serum starvation). After 2 days, differentiation of 3T3-L1 was completed.
After the differentiation of 3T3-L1 in the 12-well plate was completed, the cells were fixed with 4% paraformaldehyde and stained with an Oil Red O solution, and then the stained samples were photographed under a microscope (Nikon Eclipse Ti-s). An Oil Red O dye of the samples was dissolved in isopropanol, detected by a spectrophotometer at 492 nm, and the lipid droplet size distribution was measured using ImageJ. OCT-embedded liver samples were stained according to the Roy Ellis protocol. […]

[3] = system: high-fat diet mice; assay: High-fat diet mice: micro-CT adipose tissue volume; assay type: in vivo, C57BL/6J mice; details: 5 mg/kg/day oral, 60% HFD, vs control group, FIGS. 7 and 8
Protocol: (§1) The care and use of experimental animals were carried out with the approval of the Institutional Animal Care and Use Committee of Pohang University of Science and Technology. C57BL/6J mice were purchased from Japan SLC, Inc. 50 four-week-old male C57/BL/6J mice were acclimated for 2 weeks. The mice were randomly divided and orally administered with vehicle or 5 mg/kg/day of D6 or WY14643 for 13 weeks (oral gavage), and obesity was induced by a 60% high-fat diet (#D12492, Research diets, NJ, USA). Body weights and food intakes were measured weekly from 6 weeks of age, and after 16 weeks of age, adipose tissue and muscle volumes were measured using a Trimodality imaging system.
(§2) To confirm a metabolic disease inhibitory effect of the compound represented by Chemical Formula 1 through animal experiments, mice were acclimated for 2 weeks, and then obesity was induced by feeding a 60% high fat diet (HFD) and orally administered with vehicle or 5 mg/kg/day of the compound represented by Chemical Formula 1 (D6) or WY14643 for 13 weeks. Experiments such as IP-GTT, IP-ITT, and micro-CT were performed at the week 10 of drug administration (FIG. 5).

[4] = system: high-fat diet mice; assay: Intraperitoneal glucose tolerance test (IP-GTT) in high-fat diet mice; assay type: in vivo, C57BL/6J mice; details: 5 mg/kg/day oral, 60% HFD, glucose 2 g/kg i.p. after 16 h fasting, FIG. 10
Protocol: as §1
A glucose tolerance test (GTT) was performed on mice after 16 weeks of age after fasting for 16 hours and intraperitoneal glucose administration at 2 g/kg body weight. The blood glucose levels were measured at 0, 15, 30, 45, 60, 90, and 120 minutes after tail vein injection.
To confirm a metabolic disease inhibitory effect of the compound represented by Chemical Formula 1 through animal experiments, mice were acclimated for 2 weeks, and then obesity was induced by feeding a 60% high fat diet (HFD) and orally administered with vehicle or 5 mg/kg/day of the compound represented by Chemical Formula 1 (D6) or WY14643 for 13 weeks. […]

[5] = system: high-fat diet mice; assay: Serum analysis of high-fat diet mice; assay type: in vivo, C57BL/6J mice; details: 5 mg/kg/day oral, 60% HFD
Protocol: as §1
Mouse blood was obtained by cardiac puncture and incubated at room temperature for 30 minutes. Next, the blood sample was centrifuged at 3,000 rpm for 30 minutes at 4° C., and then the supernatant was collected and analyzed.
as §2

In the case of `COc1ccc(-c2cc(=O)oc3c(C)c(OC(=O)[C@H](Cc4c[nH]c5ccccc45)NC(=O)OC(C)(C)C)ccc23)cc1` [Chemical Formula 1, [4-(4-methoxyphenyl)-8-methyl-2-oxochromen-7-yl] (2S)-3-(1H-indol-3-yl)-2-[(2-methylpropan-2-yl)oxycarbonylamino]propanoate], the “relative luciferase activity (Fluc to Rluc) for PPARγ” value [1] is reported as “dose-dependently increased”, the “lipid droplet size distribution in adipocytes” value ([2]; FIG. 4 right) is reported as “effectively reduced” and the “lipid accumulation in adipocytes increased by rosiglitazone (Oil Red O)” value ([2]; FIGS. 3 and 4 left) is reported as “reduced”. The “volume of adipose tissue (micro-CT)” value [3] was “significantly reduced”, the “glucose tolerance (IP-GTT)” value [4] was “improved” and the “blood sugar (serum glucose)” value ([5]; FIG. 12) was “significantly reduced”. For the same compound, the “blood lipids (LDLC)” value ([5]; FIG. 13) was “significantly reduced”.
